Data reported in US20100168050A1, “COMPOUNDS HAVING ANTIANGIOGENIC ACTIVITY” (MEDESTEA INTERNAZIONALE S.P.A, priority 2004, published 2010).

Assays:
[1] = test system: Human endothelial Cells (HUVEC); test: Proliferation assay, HUVEC counted in Burker chamber; assay type: cell-based
Description: Human endothelial Cells (HUVEC) were isolated from umbilical vein, counted and seeded in a constant number in a 96-well plate. The cells were cultured as described (Jaffe, E. A. (1984) Biology of Endothelial Cells, Martinus Nighoff Publisher, Boston, USA, pp. 1-260), with or without (control) VEGF (50 ng/ml), in the presence of o-ATP (100 μM), and o-ATP+VEGF. After 24 hours cultivation with or without stimulus, the cells were washed and counted with an optical microscope using a Burker chamber. The results are reported in FIG. 1 and represent the mean±SD of 10 experiments.

[2] = test system: human umbilical vein endothelial cells (HUVEC); test: HUVEC cell growing number, crystal violet absorbance at 595 nm; assay type: cell-based
Description: HUVEC were isolated from human umbilical cord by collagenase treatment and cultured in 1% gelatine-coated flasks using endotoxin-free Medium 199, containing 20% heat-inactivated fetal bovine serum, 1% bovine retinal-derived growth factor, 90 microg/ml heparin, 100 IU/ml penicillin and 100 microg/ml streptomycin. All experiments were carried out with HUVEc at the passage 1-4.
We used oATP at the concentration of 500 microM. HUVEC were treated with oATP over night, washed and fixed with glutaraldeide 2% in PBS. The cells were colored with crystal violet 0.1%, washed and dried. The dye solubilization was performed with acetic acid 10% and the absorbance was measured spectrophotometrically at 595 nm, using a microplate reader. The optical density was proportional to the number of cells.
In the first series of experiments we studied the proliferation of human umbilical vein endothelial cells (HUVEC), obtained as previously described (1). The HUVEC were treated with each of the compounds for 36 hours, washed and fixed with glutaraldeide 2% in PBS. The cells were colored with crystal violet 0.1%, washed and dried. The dye solubilization was performed with acetic acid 10% and the absorbance was measured spectrophotometrically at 595 nm, using a microplate reader. The optical density was proportional to the number of cells.

[3] = test system: PBMC transendothelial migration through a HUVEC monolayer; test: Transendothelial migration assay, PBMC through HUVEC monolayer; assay type: cell-based, human
Description: VEGF is a prototypic angiogenetic factor which induces endothelial cell proliferation, angiogenesis and capillary permeability. The latter is evidenced by the assay of transendothelial migration. It is known that VEGF increases transendothelial migration. Migration assay was performed using a Transwell double chamber system (5 micrometer polycarbonate membrane). HUVEC (5×10^4 cells/well) were seeded on the filter, in the presence or absence of TNFα (200 U/ml) and oATP 500 microM. Freshly obtained PMBC (peripheral blood mononuclear cells) by means of fycoll from buffy-coat were added in the upper compartment and allowed to migrate over night to the lower chamber which contained RPMI and 10% fetal calf serum. […] Data represent mean±SEM of 7 experiments.

[4] = test system: RMA wild type (wt) murine lymphoma T cell line; test: Cell apoptosis assay, annexin V/PI FACS; assay type: cell-based, mouse
Description: RMA wild type (wt) murine lymphoma T cell line (ATCC) was grown in RPMI 1640 supplemented with 10% heat inactivated fetal bovine serum, 100 U/ml penicillin, 100 microg/ml streptomycin.
Apoptosis was evaluated by FACS analysis, after staining with annexin-V FITC-conjugate to show the exposure of phosphatidyl serine on the external side of plasma membranes, and with propidium iodide (PI).
Two thousand RMA wt cells and lymphocytes were treated with or without different concentrations of oATP for 24 and 48 hours. The cells were then washed with PBS with Ca++ and Mg++ and stained.
Ten thousand cell/sample were analysed and the percentage of annexin V/PI positive cells was calculated with FCS-express software (DE NOVO Software).

[5] = test system: lymphocytes from buffy-coat (PMBC), activated or not with PHA; test: Cell apoptosis assay, annexin V/PI FACS; assay type: cell-based; details: oATP at high concentrations
Description: Lymphocytes were obtained from a buffy-coat by a fycoll gradient and depleted from monocytes by adherence. Lymphocytes were activated with Phytohaemoagglutinin A mitogen (PHA). Apoptosis was evaluated by FACS analysis, after staining with annexin-V FITC-conjugate to show the exposure of phosphatidyl serine on the external side of plasma membranes, and with propidium iodide (PI). Two thousand RMA wt cells and lymphocytes were treated with or without different concentrations of oATP for 24 and 48 hours. The cells were then washed with PBS with Ca++ and Mg++ and stained. Ten thousand cell/sample were analysed and the percentage of annexin V/PI positive cells was calculated with FCS-express software (DE NOVO Software).

[6] = test system: RMA wt cells; test: Cell cycle analysis, PI staining, FACScan; assay type: cell-based, mouse
Description: RMA wt cells were treated with different concentrations of oATP for 24 and 48 hours, then fixed for at least four hours in ice-cold 70% ethanol. Cells were stained with a solution containing NP-40, RNase and PI and cell cycle distribution was detected using FACScan (Becton Dickinson, San Jose, Calif.) and analyzed with FCS-express software.
Cell cycle progression of RMA wt cell line treated with different concentrations of oATP for 24 or 48 hours.

[7] = test system: RMA cells (T-cell lymphoma); test: Tumor growth after subcutaneous RMA cell injection in C57BL/6 mice; assay type: in vivo, mouse
Excerpt: RMA cells were derived from the Rausher leukemia virus-induced mouse T-cell lymphoma RBL-5 of B6 origin and maintained in RPMI 1640 medium, supplemented with fetal bovine serum, 1% penicillin/streptomycin and 1% glutamine (complete medium).
(§1) C57BL/6 female mice weighing about 18-20 g (8 week old) were used. The cells were washed twice with 0.9% NaCl and subcutaneously injected in each mouse in a volume of 100 microliters containing 7×10^4 cells. After 10 days from RMA cell injection, we treated the mice with oATP. Five groups of mice were studied (each of 7 mice): 1) controls, untreated; 2) locally (subcutaneously) (sc) treated with 0.5 mg of oATP; 3) locally (sc) treated with 1 mg oATP; 4) intraperitoneally treated with 1 mg oATP; 5) locally (sc) treated with 1 mg oATP for 3 days only.
(§2) The mice were observed until the 20th day from the tumor inoculation: they were weighed daily and the size of the tumor mass was daily measured.

[8] = Body weight of RMA tumor-bearing mice during treatment; assay type: in vivo, mouse; details: during the different oATP treatments (0.5 or 1 mg sc, 1 mg ip)
Description: as §1, §2

[9] = test system: TNFalpha receptor 1 (TNFR1) on HUVEC; test: Cytofluorometric assay of TNFalpha receptor expression on endothelial cells; assay type: cell-based, human
Excerpt: In addition, oATP was cytofluorometrically assayed for its ability to modulate the expression of TNFalpha receptors on endothelial cells. As reported in the FIG. 9a, the use of human TNFalpha (100 U/ml) improved the expression of the TNFalpha receptor 1 (TNFR1) on HUVEC. […] However, oATP was able to downregulate the TNFalpha-induced increased expression of TNFR1.

[10] = test system: human promyelocytic leukemia HL60 cells; test: HL60 apoptosis/necrosis, annexin V-FITC and PI staining; assay type: cell-based; details: oATP 300 microM versus PPADS 50 microM and KN62 10 microM
Description: In the second series of experiments, we studied the differences in the apoptosis induction on human promyelocytic leukemia HL60 cells by ATP and by the inhibitors of the P2X7 receptors. Apoptotic cells and necrotic cells were analyzed by staining the cells with annexin V and propidium iodide (PI) (BD Pharmingen apoptosis kit, San Diego, Calif.). Briefly, an aliquot of 10^5 cells was incubated with annexin V-fluorescein isothiocyanate (FITC) and PI for 15 minutes at room temperature in the dark. The cells were immediately analyzed by FACScalibur (Becton Dickinson, Heidelberg, Germany). The emission/excitation wavelengths were 530/488 nm for annexin V FITC (FL1) and 640 nm/488 nm for PI (FL2). The necrotic cells were annexin V- and PI-positive, whereas apoptotic cells were annexin V-positive and PI-negative. The percentage of cells stained in each quadrant was quantified using the cellQuest software (BD Bioscience, San Josew, Calif.). […] FIG. 11 summarizes the effects of the different treatments on the apoptosis/necrosis induction in the HL60 cells.

[11] = test system: macrophage cell lines; details: Murgia et al. 1993; cited from earlier work
[12] = test system: microglia cells expressing P22/P2X7; details: Ferrari et al. 1997; cited from earlier work
[13] = test system: rat paw inflammation (CFA); details: WO 02/11737; cited from earlier work
[14] = group 3: locally (sc) 1 mg oATP

Nc1ncnc2c1ncn2[C@@H](C=O)O[C@@H](C=O)COP(=O)(O)OP(=O)(O)OP(=O)(O)O [oATP, adenosine-5′-triphosphate-2′,3′-dialdehyde]
effect on HUVEC proliferative capacity compared with vasostatin ([1]; in vitro, HUVEC): higher than that induced by vasostatin | proliferative capacity of HUVEC ([1]; o-ATP 100 μM, 24 hours, even in the presence of a mitogen (VEGF 50 ng/ml)): significant reduction | cell growing number (HUVEC proliferation) ([2]; 36 hours, ATP 3 mM, oATP 300 microM, PPADS 50 microM, KN62 10 microM): maximal reduction | cell growing number (optical density) ([2]; oATP 500 microM over night): significantly reduced | non-stimulated PBMC transendothelial migration ([3]; addition of oATP, no TNFα): inhibited | TNFα-induced transendothelial migration of PBMC ([3]; oATP 500 microM, TNFα 200 U/ml, over night): significantly reduces | percentage of AnnexinV/PI positive cells ([4]; RMA wt, oATP 1 mM, 48 hours): strongly increases | apoptosis of RMA cells ([4]; oATP at high concentrations): able to induce apoptosis | apoptosis of lymphocytes [5]: not of lymphocytes | % G0/G1 ([6]; oATP 0.1 μM, 24 h): 48% | % G2/M ([6]; oATP 0.1 μM, 24 h): 19% | % S ([6]; oATP 0.1 μM, 24 h): 24% | % subG1 ([6]; oATP 0.1 μM, 24 h): 9% | % G0/G1 ([6]; oATP 0.1 μM, 48 h): 50% | % G2/M ([6]; oATP 0.1 μM, 48 h): 22% | % S ([6]; oATP 0.1 μM, 48 h): 24% | % subG1 ([6]; oATP 0.1 μM, 48 h): 4% | % G0/G1 ([6]; oATP 1 μM, 24 h): 38% | % G2/M ([6]; oATP 1 μM, 24 h): 10% | % S ([6]; oATP 1 μM, 24 h): 29% | % subG1 ([6]; oATP 1 μM, 24 h): 23% | % G0/G1 ([6]; oATP 1 μM, 48 h): 52% | % G2/M ([6]; oATP 1 μM, 48 h): 26% | % S ([6]; oATP 1 μM, 48 h): 19% | % subG1 ([6]; oATP 1 μM, 48 h): 3% | % G0/G1 ([6]; oATP 20 μM, 48 h): 50% | % G2/M ([6]; oATP 20 μM, 48 h): 19% | % S ([6]; oATP 20 μM, 48 h): 23% | % subG1 ([6]; oATP 20 μM, 48 h): 8% | % G0/G1 ([6]; oATP 0.1 mM, 24 h): 44% | % G2/M ([6]; oATP 0.1 mM, 24 h): 5% | % S ([6]; oATP 0.1 mM, 24 h): 20% | % subG1 ([6]; oATP 0.1 mM, 24 h): 31% | % G0/G1 ([6]; oATP 0.1 mM, 48 h): 33% | % G2/M ([6]; oATP 0.1 mM, 48 h): 20% | % S ([6]; oATP 0.1 mM, 48 h): 33% | % subG1 ([6]; oATP 0.1 mM, 48 h): 14% | % G0/G1 ([6]; oATP 1 mM, 24 h): 16% | % G2/M ([6]; oATP 1 mM, 24 h): 3% | % S ([6]; oATP 1 mM, 24 h): 6% | % subG1 ([6]; oATP 1 mM, 24 h): 75% | % G0/G1 ([6]; oATP 1 mM, 48 h): 44% | % G2/M ([6]; oATP 1 mM, 48 h): 7% | % S ([6]; oATP 1 mM, 48 h): 25% | % subG1 ([6]; oATP 1 mM, 48 h): 24% | consistency of the tumor mass obtained in 20 days [7, 14]: less solid than the tumor mass obtained in the other groups | tumor growth at 20 days from RMA cell injection [7, 14]: less evident than that observed in the other groups | tumor mass (arbitrary units) ([7]; group 3: locally (sc) 1 mg oATP, three days from the beginning of the treatment (until the 14th day)): did not significantly grow | tumor mass (arbitrary units) ([7]; group 5: locally (sc) 1 mg oATP for 3 days only, three days from the beginning of the treatment): did not significantly grow | tumor growth ([7]; local continuous treatment with 1 mg oATP): significantly slowing the tumor growth | body weights of the mice [8]: No significant differences | TNFalpha-induced increased expression of TNFR1 ([9]; human TNFalpha 100 U/ml plus oATP): downregulate | expression of TNFR1 on HUVEC ([9]; oATP alone): did not modify such expression | cell apoptosis induction on HL60 [10]: at better extent with respect to PPADS and KN62 | ATP-induced permeabilization of the plasma membrane [11]: able to block | IL-1β release (dependent on LPS) [12]: selectively inhibited | effect on CFA-induced unilateral rat paw inflammation [13]: anti-inflammatory and analgesic effect
